According to US6310086A, “Indole derivatives and medicinal compositions containing the same” (Kissei Pharmaceutical Co., Ltd., priority 1998, dated 2001):
Structures can show the parent of a compound that is named as a salt. Where two headings read alike, the source gives them in different places.

Columns and labels:
α1-adrenoceptor = target: T1, α1-adrenoceptor (Rattus norvegicus, UniProt P43140); test: Test for Measuring α1-adrenoceptor Blocking Effect (inhibition of norepinephrine contraction of isolated ductus deferens); type: cell-based, rat (male Wistar); conditions: 10 μM norepinephrine, propranorol 1 μM and yohimbine 0.1 μM
T1 construct: Ductus deferenses (about 1.5 cm from testis side) were isolated; from tissue; host or cells: isolated ductus deferens (about 1.5 cm from testis side) of male Wistar rats, organ bath
T1 sequence (P43140 1-466): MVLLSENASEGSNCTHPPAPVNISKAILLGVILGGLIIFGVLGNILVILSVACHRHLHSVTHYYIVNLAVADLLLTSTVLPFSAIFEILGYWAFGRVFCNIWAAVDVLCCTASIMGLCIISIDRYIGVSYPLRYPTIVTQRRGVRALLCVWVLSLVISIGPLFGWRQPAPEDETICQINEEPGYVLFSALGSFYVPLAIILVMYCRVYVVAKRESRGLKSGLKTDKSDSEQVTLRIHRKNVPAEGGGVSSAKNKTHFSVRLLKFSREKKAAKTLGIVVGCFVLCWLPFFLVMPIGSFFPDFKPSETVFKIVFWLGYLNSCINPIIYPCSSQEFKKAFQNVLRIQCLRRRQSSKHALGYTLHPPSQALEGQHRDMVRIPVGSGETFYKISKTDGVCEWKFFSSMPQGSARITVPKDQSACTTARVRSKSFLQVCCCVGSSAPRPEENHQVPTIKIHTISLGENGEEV
Protocol: Ductus deferenses (about 1.5 cm from testis side) were isolated frommaleWistar rats (about 300 to 350 g in body weight). […] A solution of a mixture containing propranorol and yohimbine (final concentration: propranorol 1 μM and yohimbine 0.1 μM) was added into the Magnus bath. After 30 minutes, norepinephrine at the final concentration of 10 μM was added into the Magnus bath until the maximum contraction was obtained, and each preparation was washed. This procedure was repeated several times until the heights of contraction were stable. Each preparation was pre-treated with a solution containing the test compound before 30 minutes, and the contractile responses by treatment of 10 μM norepinephrine were measured. Contraction of each preparation without pre-treatment of the test compound was expressed as 100%.

male SD rats = test: Acute Toxicity Test (oral); type: in vivo, rat (SD); conditions: 1000 mg/kg
Protocol: Male SD rats of 7 weeks age (n=5; 190-210 g in body weight) were fasted for 18 hours. (R)-3-[7-Carbamoyl-5-[2-[[2-(2-ethoxyphenoxy)ethyl]amino]propyl]-1H-indol- 1-yl]propyl pivalate hydrochloride which was suspended in 0.5% aqueous methylcellulose solution at a concentration of 100 mg/ml was orally administered to the rats at a dose of 1000 mg/kg.

[1] = Test for Measuring Drug Concentration in Aqueous Humor (2), after instillation of Compound C hydrochloride; type: in vivo, rabbit (Japanese White); conditions: rabbit eye
Protocol: To the collected aqueous humor (0.1 ml) was added internal standard [(R)-3-chloro-1-(3-hydroxypropyl)-5-[2-[[2-[2-(2,2,2-trifluoroethoxy)phenoxy]ethyl]amino]propyl]-1H-indole-7-carboxamide](10 ng), and 0.1M phosphate buffer (pH7.6) and sodium chloride (about 1 g) were added to the mixture. The resulting mixture was extracted with diethyl ether (5 ml), and the diethyl ether layer was concentrated under a stream of nitrogen.
Mobile phase: acetonitrile/0.1% phosphoric acid+2 mM sodium laurylsulfate=1/1
Fluorometry: excitation wave length 270 nm, emission wave length 435 nm

Endogenous Enzyme = test: Test for Rate of Hydrolysis by Endogenous Enzyme in whole blood; type: in vitro ADME, rat (male Wistar); conditions: blood, 2 hours
Protocol: (§1) (1 μg), and the mixture was incubated at 37° C. After 15 minutes, 30 minutes, 1 hour and 2 hours, 0.7M aqueous sodium fluoride solution (0.5 ml) as an esterase inhibitor was added to each sample to stop the reaction.
(§2) Analytical column: Inertsil ODS-3 (4.6×250 mm)
(§3) Mobile phase: acetonitrile/20 mM acetate buffer (pH 5.0)=40/60 Column temperature: 50° C.
(§4) Fluorometry: excitation wavelength 270 nm, emission wavelength 435 nm

[2] = as above; type: in vitro ADME, rat (male Wistar); conditions: for metabolised at 0.25 h: read-out: Decomposition rate, 15 minutes after; for metabolised at 1 h: read-out: Decomposition rate, 1 hour after; for metabolised at 2 h: read-out: Decomposition rate, 2 hours after
Protocol: as §1, §2, §3, §4

[3] = Stability Test in aqueous solution; type: physicochemical; conditions: pH 5, decomposed into Compound A
Protocol: The test compounds were dissolved in 0. 1M acetate buffer (pH 5.0) to prepare 0.1% solutions. Each 0.1% solution was allowed to stand in the dark for 28 days at 40° C., 50° C., 60° C. and 70° C., respectively.

[4] = rat whole blood, 37° C., 1 μg in 0.5 ml
[5] = rat whole blood, 37° C., 1 μg in 0.5 ml, read-out: Decomposition rate, 30 minutes after

Structure (SMILES) | metabolised at 0.5 h ([2]; blood, 30 minutes) | metabolised at 0.25 h [2, 4] | metabolised at 0.5 h [2, 5] | metabolised at 1 h [2, 4] | metabolised at 2 h [2, 4] | other results
CCCC(=O)N1CCCN(c2nc(N)c3cc(OC)c(OC)cc3n2)CC1 [Bunazosin hydrochloride] |  |  |  |  |  | IC50 (α1-adrenoceptor): 315 nM
CCOc1ccccc1OCCN[C@H](C)Cc1cc(C(N)=O)c2c(ccn2CCCOC(=O)C(C)(C)C)c1.Cl [Compound C hydrochloride, (R)-3-[7-Carbamoyl-5-[2-[[2-(2-ethoxyphenoxy)ethyl]amino]-propyl]-1H-indol-1-yl]propyl Pivalate Hydrochloride] |  |  |  |  |  | fatal rats during 24 hours after administration (male SD rats): Any fatal rats were not observed
CCOc1ccccc1OCCN[C@H](C)Cc1cc(C(N)=O)c2c(ccn2CCCOC(=O)C(C)(C)C)c1 [Compound C, (R)-3-[7-Carbamoyl-5-[2-[[2-(2-ethoxyphenoxy)ethyl]amino]-propyl]-1H-indol-1-yl]propyl Pivalate] |  |  |  |  |  | detection of the ester in aqueous humor ([1]; even after 20 minutes): could not be detected in aqueous humor at all even after 20 minutes
CCOc1ccccc1OCCN[C@H](C)Cc1cc(C(N)=O)c2c(ccn2CCCOC(=O)C(C)(C)C)c1 [Compound C] |  |  |  |  |  | concentration at 20 min ([1]; aqueous humor, topical or ocular, 50 ug/eye, 50 μl of 0.1% Compound C hydrochloride instilled, Compounds B and C determined, read-out: Drug concentrations in aqueous humor, 20 minutes after): < 1 ng/mL; concentration at 2 h ([1]; aqueous humor, topical or ocular, 50 ug/eye, 50 μl of 0.1% Compound C hydrochloride instilled, Compounds B and C determined, read-out: Drug concentrations in aqueous humor, 2 hours after): < 1 ng/mL; concentration at 6 h ([1]; aqueous humor, topical or ocular, 50 ug/eye, 50 μl of 0.1% Compound C hydrochloride instilled, Compounds B and C determined, read-out: Drug concentrations in aqueous humor, 6 hours after): < 1 ng/mL
C[C@H](Cc1cc(C(N)=O)c2c(ccn2CCCOC(=O)C(C)(C)C)c1)NCCOc1ccccc1OCC(F)(F)F [Compound D, (R)-3-[7-Carbamoyl-5-[2-[[2-[2-(2,2,2-trifluoroethoxy)-phenoxy]ethyl]amino]propyl]-1H-indol-1-yl]propyl Pivalate] | ~67% |  |  |  |  | conversion into Compound A after 2 hours (Endogenous Enzyme): almost Compound A after 2 hours; degraded ([3]; 40° C., about 1 month at 40° C.): ~0.1%; degraded ([3]; 70° C., about 1 month at 70° C.): ~1.1%
C[C@H](Cc1cc(C(N)=O)c2c(ccn2CCCOC(=O)C(C)(C)C)c1)NCCOc1ccccc1OCC(F)(F)F [Compound D] |  | 54.8% | 67.1% | 86.5% | 98.6% | 
CCC(CC)C(=O)OCCCn1ccc2cc(C[C@@H](C)NCCOc3ccccc3OCC(F)(F)F)cc(C(N)=O)c21 [Compound a, (R)-3-[7-Carbamoyl-5-[2-[[2-[2-(2,2,2-trifluoroethoxy)-phenoxy]ethyl]amino]propyl]-1H-indol-1-yl]propyl 2-ethyl-butyrate] | ~12% |  |  |  |  | 
CCC(CC)C(=O)OCCCn1ccc2cc(C[C@@H](C)NCCOc3ccccc3OCC(F)(F)F)cc(C(N)=O)c21 [Compound a] |  | 8.4% | 12% | 12.6% | 25.2% | 
CCCC(C)(C)C(=O)OCCCn1ccc2cc(C[C@@H](C)NCCOc3ccccc3OCC(F)(F)F)cc(C(N)=O)c21 [Compound b, (R)-3-[7-Carbamoyl-5-[2-[[2-[2-(2,2,2-trifluoroethoxy)-phenoxy]ethyl]amino]propyl]-1H-indol-1-yl]propyl 2,2-dimethylvalerate] | ~4% |  |  |  |  | 
CCCC(C)(C)C(=O)OCCCn1ccc2cc(C[C@@H](C)NCCOc3ccccc3OCC(F)(F)F)cc(C(N)=O)c21 [Compound b] |  | 2.2% | 3.8% | 7.5% | 10.2% | 
C[C@H](Cc1cc(C(N)=O)c2c(ccn2CCCOC(=O)C(C)(C)c2ccccc2)c1)NCCOc1ccccc1OCC(F)(F)F [Compound c, (R)-3-[7-Carbamoyl-5-[2-[[2-[2-(2,2,2-trifluoroethoxy)-phenoxy]ethyl]amino]propyl]1H-indol-1-yl]propyl α,α-dimethylphenylacetate] | ~2% |  |  |  |  | 
C[C@H](Cc1cc(C(N)=O)c2c(ccn2CCCOC(=O)C(C)(C)c2ccccc2)c1)NCCOc1ccccc1OCC(F)(F)F [Compound c] |  | 0.6% | 1.6% | 3.2% | 3.7% | 
CCC(C)(C)C(=O)OCCCn1ccc2cc(C[C@@H](C)NCCOc3ccccc3OCC(F)(F)F)cc(C(N)=O)c21 [Compound d, (R)-3-[7-Carbamoyl-5-[2-[[2-[2-(2,2,2-trifluoroethoxy)-phenoxy]ethyl]amino]propyl]-1H-indol-1-yl]propyl 2,2-Dimethylbutyrate] | ~6% |  |  |  |  | 
CCC(C)(C)C(=O)OCCCn1ccc2cc(C[C@@H](C)NCCOc3ccccc3OCC(F)(F)F)cc(C(N)=O)c21 [Compound d] |  | 2.1% | 5.6% | 8.4% | 21.7% | 
